Measurements from US12077503B2, “Substituted cyclic amides and their use as herbicides” (FMC CORPORATION, priority 2015, dated 2024).

Experiments:
Assay type in all cases: in vivo
[1] = tested on: redroot pigweed (Amaranthus retroflexus); assay: Test G Post-Emergence Protocol; details: Amaranthus retroflexus, post-emergence, 312 h, read-out: Pigweed, Redroot damage rating; for pest or weed control at 15.625 g/ha: 15.625 g ai/ha, evaluated after 13 days (100=total damage to plant; 0=no damage to plant); for pest or weed control at 62.5 g/ha: 62.5 g ai/ha; for pest or weed control at 62.5 g/ha / pest or weed control at 250 g/ha: evaluated after 13 days, 100=total damage to plant, 0=no damage to plant; for pest or weed control at 250 g/ha: 250 g ai/ha
How it was run: (§1)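 Damage was rated 13 days after treatment from 0 (none) to 100 (plant killed). Compound was applied as a spray at 15.625, 62.5 or 250 g/ha in 50:50 acetone/water containing 0.5% Tween 20, onto 8-day-old potted plants kept in a glasshouse (24/16 °C, 14 h light, 65% humidity).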

[2] = tested on: ivy-leaved morning glory (Ipomoea hederacea); assay: Test G Post-Emergence Protocol; details: Ipomoea, post-emergence, 312 h, read-out: Morningglory, Ivy-leaved damage rating; for pest or weed control at 15.625 g/ha: 15.625 g ai/ha, evaluated after 13 days (100=total damage to plant; 0=no damage to plant); for pest or weed control at 62.5 g/ha: 62.5 g ai/ha; for pest or weed control at 62.5 g/ha / pest or weed control at 250 g/ha: evaluated after 13 days, 100=total damage to plant, 0=no damage to plant; for pest or weed control at 250 g/ha: 250 g ai/ha
How it was run: as §1

[3] = tested on: giant foxtail (Setaria faberi); assay: Test G Post-Emergence Protocol; details: Setaria faberi, post-emergence, 312 h, read-out: Foxtail, Giant damage rating; for pest or weed control at 15.625 g/ha: 15.625 g ai/ha, evaluated after 13 days (100=total damage to plant; 0=no damage to plant); for pest or weed control at 62.5 g/ha: 62.5 g ai/ha; for pest or weed control at 62.5 g/ha / pest or weed control at 250 g/ha: evaluated after 13 days, 100=total damage to plant, 0=no damage to plant; for pest or weed control at 250 g/ha: 250 g ai/ha
How it was run: as §1

[4] = tested on: barnyardgrass (Echinochloa crus-galli); assay: Test G Post-Emergence Protocol; details: Echinochloa crus-galli, post-emergence, 312 h, read-out: Barnyardgrass damage rating; for pest or weed control at 15.625 g/ha: 15.625 g ai/ha, evaluated after 13 days (100=total damage to plant; 0=no damage to plant); for pest or weed control at 62.5 g/ha: 62.5 g ai/ha; for pest or weed control at 62.5 g/ha / pest or weed control at 250 g/ha: evaluated after 13 days, 100=total damage to plant, 0=no damage to plant; for pest or weed control at 250 g/ha: 250 g ai/ha
How it was run: as §1

corn (Zea mays) [5] = assay: Test G Post-Emergence Protocol; details: Zea mays, post-emergence, 312 h, read-out: Corn damage rating; for plant injury at 15.625 g/ha: 15.625 g ai/ha, evaluated after 13 days (100=total damage to plant; 0=no damage to plant); for plant injury at 62.5 g/ha: 62.5 g ai/ha; for plant injury at 62.5 g/ha / plant injury at 250 g/ha: evaluated after 13 days, 100=total damage to plant, 0=no damage to plant; for plant injury at 250 g/ha: 250 g ai/ha
How it was run: as §1

[6] = tested on: velvetleaf (Abutilon theophrasti); assay: Test G Post-Emergence Protocol; details: Abutilon theophrasti, post-emergence, 312 h, read-out: Velvetleaf damage rating; for pest or weed control at 15.625 g/ha: 15.625 g ai/ha, evaluated after 13 days (100=total damage to plant; 0=no damage to plant); for pest or weed control at 62.5 g/ha: 62.5 g ai/ha; for pest or weed control at 62.5 g/ha / pest or weed control at 250 g/ha: evaluated after 13 days, 100=total damage to plant, 0=no damage to plant; for pest or weed control at 250 g/ha: 250 g ai/ha
How it was run: as §1

[7] = tested on: redroot pigweed (Amaranthus retroflexus); assay: Test G Pre-Emergence Protocol; details: Amaranthus retroflexus, pre-emergence, 312 h, evaluated after 13 days; for pest or weed control at 15.625 g/ha: 15.625 g ai/ha; for pest or weed control at 15.625 g/ha / pest or weed control at 250 g/ha: read-out: Pigweed, Redroot damage rating (100=total damage to plant; 0=no damage to plant); for pest or weed control at 62.5 g/ha: 62.5 g ai/ha, 100=total damage to plant, 0=no damage to plant, read-out: Pigweed, Redroot damage rating; for pest or weed control at 250 g/ha: 250 g ai/ha
How it was run: (§2)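 Visual injury (0–100) at day 13 after a single pre-emergence spray. Rates: 15.625, 62.5, 250 g/ha in acetone–water 50:50 with 0.5% Tween 20. Growth conditions: 24/16° C, 14 h light, 65% humidity.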

[8] = tested on: ivy-leaved morning glory (Ipomoea hederacea); assay: Test G Pre-Emergence Protocol; details: Ipomoea, pre-emergence, 312 h, evaluated after 13 days; for pest or weed control at 15.625 g/ha: 15.625 g ai/ha; for pest or weed control at 15.625 g/ha / pest or weed control at 250 g/ha: read-out: Morningglory, Ivy-leaved damage rating (100=total damage to plant; 0=no damage to plant); for pest or weed control at 62.5 g/ha: 62.5 g ai/ha, 100=total damage to plant, 0=no damage to plant, read-out: Morningglory, Ivy-leaved damage rating; for pest or weed control at 250 g/ha: 250 g ai/ha
How it was run: as §2

[9] = tested on: giant foxtail (Setaria faberi); assay: Test G Pre-Emergence Protocol; details: Setaria faberi, pre-emergence, 312 h, evaluated after 13 days; for pest or weed control at 15.625 g/ha: 15.625 g ai/ha; for pest or weed control at 15.625 g/ha / pest or weed control at 250 g/ha: read-out: Foxtail, Giant damage rating (100=total damage to plant; 0=no damage to plant); for pest or weed control at 62.5 g/ha: 62.5 g ai/ha, 100=total damage to plant, 0=no damage to plant, read-out: Foxtail, Giant damage rating; for pest or weed control at 250 g/ha: 250 g ai/ha
How it was run: as §2

[10] = tested on: barnyardgrass (Echinochloa crus-galli); assay: Test G Pre-Emergence Protocol; details: Echinochloa crus-galli, pre-emergence, 312 h, evaluated after 13 days; for pest or weed control at 15.625 g/ha: 15.625 g ai/ha; for pest or weed control at 15.625 g/ha / pest or weed control at 250 g/ha: read-out: Barnyardgrass damage rating (100=total damage to plant; 0=no damage to plant); for pest or weed control at 62.5 g/ha: 62.5 g ai/ha, 100=total damage to plant, 0=no damage to plant, read-out: Barnyardgrass damage rating; for pest or weed control at 250 g/ha: 250 g ai/ha
How it was run: as §2

corn (Zea mays) [11] = assay: Test G Pre-Emergence Protocol; details: Zea mays, pre-emergence, 312 h, evaluated after 13 days; for plant injury at 15.625 g/ha: 15.625 g ai/ha; for plant injury at 15.625 g/ha / plant injury at 250 g/ha: read-out: Corn damage rating (100=total damage to plant; 0=no damage to plant); for plant injury at 62.5 g/ha: 62.5 g ai/ha, 100=total damage to plant, 0=no damage to plant, read-out: Corn damage rating; for plant injury at 250 g/ha: 250 g ai/ha
How it was run: as §2

[12] = tested on: velvetleaf (Abutilon theophrasti); assay: Test G Pre-Emergence Protocol; details: Abutilon theophrasti, pre-emergence, 312 h, evaluated after 13 days; for pest or weed control at 15.625 g/ha: 15.625 g ai/ha; for pest or weed control at 15.625 g/ha / pest or weed control at 250 g/ha: read-out: Velvetleaf damage rating (100=total damage to plant; 0=no damage to plant); for pest or weed control at 62.5 g/ha: 62.5 g ai/ha, 100=total damage to plant, 0=no damage to plant, read-out: Velvetleaf damage rating; for pest or weed control at 250 g/ha: 250 g ai/ha
How it was run: as §2

## CCOc1c(Cl)cc(C2CN(C)C(=O)C2C(=O)Nc2cccc(F)c2F)cc1OC (stereo not drawn) [Compound 1721]
[1]
  pest or weed control at 15.625 g/ha: 0%
  pest or weed control at 62.5 g/ha: 0%
  pest or weed control at 250 g/ha: 0%
[2]
  pest or weed control at 15.625 g/ha: 0%
  pest or weed control at 62.5 g/ha: 40%
  pest or weed control at 250 g/ha: 70%
[3]
  pest or weed control at 15.625 g/ha: 0%
  pest or weed control at 62.5 g/ha: 50%
  pest or weed control at 250 g/ha: 80%
[4]
  pest or weed control at 15.625 g/ha: 0%
  pest or weed control at 62.5 g/ha: 30%
  pest or weed control at 250 g/ha: 80%
Corn (Zea mays) [5]
  plant injury at 15.625 g/ha: 0%
  plant injury at 62.5 g/ha: 10%
  plant injury at 250 g/ha: 10%
[6]
  pest or weed control at 15.625 g/ha: 0%
  pest or weed control at 62.5 g/ha: 0%
  pest or weed control at 250 g/ha: 0%
[7]
  pest or weed control at 15.625 g/ha: 0%
  pest or weed control at 62.5 g/ha: 0%
  pest or weed control at 250 g/ha: 0%
[8]
  pest or weed control at 15.625 g/ha: 0%
  pest or weed control at 62.5 g/ha: 0%
  pest or weed control at 250 g/ha: 0%
[9]
  pest or weed control at 15.625 g/ha: 30%
  pest or weed control at 62.5 g/ha: 60%
  pest or weed control at 250 g/ha: 90%
[10]
  pest or weed control at 15.625 g/ha: 0%
  pest or weed control at 62.5 g/ha: 50%
  pest or weed control at 250 g/ha: 80%
Corn (Zea mays) [11]
  plant injury at 15.625 g/ha: 10%
  plant injury at 62.5 g/ha: 0%
  plant injury at 250 g/ha: 0%
[12]
  pest or weed control at 15.625 g/ha: 0%
  pest or weed control at 62.5 g/ha: 0%
  pest or weed control at 250 g/ha: 0%

## CN1C[C@@H](c2cccc(C(F)(F)F)c2)[C@H](C(=O)Nc2cccnc2F)C1=O [Compound 1823]
[1]
  pest or weed control at 15.625 g/ha: 0%
  pest or weed control at 62.5 g/ha: 0%
  pest or weed control at 250 g/ha: 0%
[2]
  pest or weed control at 15.625 g/ha: 0%
  pest or weed control at 62.5 g/ha: 0%
  pest or weed control at 250 g/ha: 0%
[3]
  pest or weed control at 15.625 g/ha: 0%
  pest or weed control at 62.5 g/ha: 0%
  pest or weed control at 250 g/ha: 0%
[4]
  pest or weed control at 15.625 g/ha: 0%
  pest or weed control at 62.5 g/ha: 0%
  pest or weed control at 250 g/ha: 0%
Corn (Zea mays) [5]
  plant injury at 15.625 g/ha: 0%
  plant injury at 62.5 g/ha: 0%
  plant injury at 250 g/ha: 0%
[6]
  pest or weed control at 15.625 g/ha: 0%
  pest or weed control at 62.5 g/ha: 0%
  pest or weed control at 250 g/ha: 0%
[7]
  pest or weed control at 15.625 g/ha: 0%
  pest or weed control at 62.5 g/ha: 0%
  pest or weed control at 250 g/ha: 0%
[8]
  pest or weed control at 15.625 g/ha: 0%
  pest or weed control at 62.5 g/ha: 0%
  pest or weed control at 250 g/ha: 0%
[9]
  pest or weed control at 15.625 g/ha: 0%
  pest or weed control at 62.5 g/ha: 0%
  pest or weed control at 250 g/ha: 0%
[10]
  pest or weed control at 15.625 g/ha: 0%
  pest or weed control at 62.5 g/ha: 0%
  pest or weed control at 250 g/ha: 0%
Corn (Zea mays) [11]
  plant injury at 15.625 g/ha: 0%
  plant injury at 62.5 g/ha: 0%
  plant injury at 250 g/ha: 0%
[12]
  pest or weed control at 15.625 g/ha: 0%
  pest or weed control at 62.5 g/ha: 0%
  pest or weed control at 250 g/ha: 0%
